Data on 44 compounds can be found in BindingDB's records for patent US20250074895 (Blueprint Medicines, 2025).

The target of assay [1] is Cyclin-dependent kinase 2/G1/S-specific cyclin-E1 (Homo sapiens, UniProt P24941). The experiment in a line: Biochemical CDK Inhibition Assay. The procedure: (§1) nhibitory effects of the compounds of the disclosure were measured in biochemical assays that measure the enzymatic phosphorylation activity of CDK enzyme in complex of Cyclin proteins phosphorylates 7.5 micromolar fluorescently labelled peptide substrate, 5-FAM-QSPKKG-CONH2, (FL-Peptide 18, Perkin Elmer, 760362) in the presence of adenosine-5′-triphosphate (ATP) and varying concentrations of the test compound in 100 mM 2-[4-(2-hydroxyethyl)piperazin-1-yl]ethanesulfonic acid (HEPES), pH 7.5, 10 mM MgCl2, 0.015% Brij-35, 1 mM dithiothreitol (DTT), 1.0% dimethylsulfoxide (DMSO). Assays were performed at 1.0 mM ATP or at ATP Km of the CDK enzymes in complex with Cyclin proteins. Reactions proceeded until between 10% to 20% total peptides were phosphorylated at room temperature (25° C.) and were terminated with 35 mM 2,2′,2″,2′″-(ethane-1,2-diyldinitrilo)tetraacetic acid (EDTA). Product was detected using the Caliper mobility shift detection method where the phosphorylated peptide (product) and substrate were electrophoretically separated and measured. Percent activity was plotted against log concentration of compound and points to generate an apparent IC50. The following CDK enzymes in complex with different cyclin proteins were used in these assays:CDK1/Cyclin B1, GST-tag (BPS, 40454), 1.5 nM used in the assayCDK2/Cyclin E (Eurofins, 14-475), 1.25 nM used in the assays

The target of assay [2] is Cyclin-dependent kinase/G2/mitotic-specific cyclin- 1 (Homo sapiens, UniProt P06493). The experiment in a line: Biochemical CDK Inhibition Assay. The procedure:
as §1

SMILES strings stand for the structures. pIC50: −log10 of the molar value.

By pIC50 is commonly meant −log10 of the IC50, conventionally taken in molar units. A high value points to a low IC50.

Cyclin-dependent kinase/G2/mitotic-specific cyclin- 1, sequence (P06493 whole entry): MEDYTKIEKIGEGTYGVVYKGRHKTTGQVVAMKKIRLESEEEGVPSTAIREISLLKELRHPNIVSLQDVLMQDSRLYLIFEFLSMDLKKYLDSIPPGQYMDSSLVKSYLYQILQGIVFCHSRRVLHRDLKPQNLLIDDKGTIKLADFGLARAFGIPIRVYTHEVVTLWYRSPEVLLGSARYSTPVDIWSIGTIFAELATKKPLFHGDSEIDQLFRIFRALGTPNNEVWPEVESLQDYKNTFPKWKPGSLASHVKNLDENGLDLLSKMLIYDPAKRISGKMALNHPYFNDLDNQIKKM
Cyclin-dependent kinase/G2/mitotic-specific cyclin- 1, sequence (P14635 whole entry, further chain): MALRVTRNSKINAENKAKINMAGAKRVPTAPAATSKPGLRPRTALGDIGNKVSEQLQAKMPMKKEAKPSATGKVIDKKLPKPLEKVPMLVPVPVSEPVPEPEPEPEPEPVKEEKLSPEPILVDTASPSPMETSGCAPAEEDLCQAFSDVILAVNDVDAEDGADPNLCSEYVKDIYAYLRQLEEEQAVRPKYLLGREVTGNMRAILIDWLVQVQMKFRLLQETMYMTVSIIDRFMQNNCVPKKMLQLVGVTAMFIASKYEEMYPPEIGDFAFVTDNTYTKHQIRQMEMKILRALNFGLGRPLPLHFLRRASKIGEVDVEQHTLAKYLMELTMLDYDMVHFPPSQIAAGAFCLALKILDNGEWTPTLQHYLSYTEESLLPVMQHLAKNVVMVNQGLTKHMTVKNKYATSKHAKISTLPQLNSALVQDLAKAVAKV

As to `Cc1cncnc1Nc1cc([C@H]2CC[C@@H](OC(=O)NC3(C)CC3)C2)[nH]n1` [US20250074895, Compound 40], the pIC50 is 7.82 in assay [1] and under 6.30 in assay [2].

In the case of `CC1(NC(=O)O[C@@H]2CC[C@H](c3cc(Nc4ccnc(CO)n4)n[nH]3)C2)CC1` [US20250074895, Compound 46], the negative logarithm of the IC50 (pIC50) is over 8.00 in assay [1] and 6.52 in assay [2].

With `CC1(C)CCN1C(=O)O[C@@H]1CC[C@H](c2cc(Nc3cnc(CO)cn3)n[nH]2)C1` [US20250074895, Compound 49], the pIC50 in assay [1] was over 8.00; in assay [2] it was over 7.00.

Regarding `CC1(NC(=O)O[C@@H]2CC[C@H](c3cc(Nc4cnc(OC(F)F)cn4)n[nH]3)C2)CC1` [US20250074895, Compound 8], the values for the negative-log IC50 (pIC50) in assay [1] and in assay [2] were over 8.00 and 6.52, respectively.

Take `COc1cnc(Nc2cc([C@H]3CC[C@@H](OC(=O)NC4(C)CC4)C3)[nH]n2)cn1` [US20250074895, Compound 28]: the negative-log IC50 (pIC50) in assay [1] was over 8.00; in assay [2], 6.52.

For `COc1nccc(Nc2cc([C@H]3CC[C@@H](OC(=O)NC4(C)CC4)C3)[nH]n2)n1` [US20250074895, Compound 25], the results for the pIC50 in assay [1] and in assay [2] were over 8.00 and 6.52, respectively.

`CC1(NC(=O)O[C@@H]2CC[C@H](c3cc(Nc4cnc(C(C)(C)O)cn4)n[nH]3)C2)CC1` [US20250074895, Compound 17]: the negative logarithm of the IC50 (pIC50) in assay [1] was over 8.00; in assay [2] it was 6.52.

As to `Cc1nccc(Nc2cc([C@H]3CC[C@@H](OC(=O)NC4(C)CC4)C3)[nH]n2)n1` [US20250074895, Compound 34], the figures for the pIC50 in assay [1] and in assay [2] were over 8.00 and 6.52, respectively.

In the case of `CC1(NC(=O)O[C@@H]2CC[C@H](c3cc(Nc4cnc(F)cn4)n[nH]3)C2)CC1` [US20250074895, Compound 31], the pIC50 in assay [1] is over 8.00; in assay [2] it was over 7.00.

Turning to `Cc1nc(CO)cnc1Nc1cc([C@H]2CC[C@@H](OC(=O)NC3(C)CC3)C2)[nH]n1` [US20250074895, Compound 47], the negative-log IC50 (pIC50) in assay [1] was over 8.00; in assay [2], under 6.30.

With `CC1(NC(=O)O[C@@H]2CC[C@H](c3cc(Nc4nccnn4)n[nH]3)C2)CC1` [US20250074895, Compound 42], the figures for the negative-log IC50 (pIC50) in assay [1] and in assay [2] were 7.60 and under 6.30, respectively.

As for `COc1cncc(Nc2cc([C@H]3CC[C@@H](OC(=O)NC4(C)CC4)C3)[nH]n2)n1` [US20250074895, Compound 24], the values for the negative-log IC50 (pIC50) in assay [1] and in assay [2] were over 8.00 and 6.52, respectively.

Consider `CC1(NC(=O)O[C@@H]2CC[C@H](c3cc(Nc4ccc(C#N)nn4)n[nH]3)C2)CC1` [US20250074895, Compound 18], for which the negative-log IC50 (pIC50) in assay [1] was 7.82; in assay [2] it was under 6.30.

In the case of `CC1(NC(=O)O[C@@H]2CC[C@H](c3cc(Nc4ccnc(C(F)(F)F)n4)n[nH]3)C2)CC1` [US20250074895, Compound 10], the pIC50 was over 8.00 in assay [1] and over 7.00 in assay [2].

On to `COc1cnc(Nc2cc([C@H]3CC[C@@H](OC(=O)NC4(C)CC4)C3)[nH]n2)c(C)n1` [US20250074895, Compound 45], for which the values for the negative-log IC50 (pIC50) in assay [1] and in assay [2] were over 8.00 and under 6.30, respectively.

Take `Cc1nc(Nc2cc([C@H]3CC[C@@H](OC(=O)NC4(C)CC4)C3)[nH]n2)cnc1C#N` [US20250074895, Compound 9]: the values for the negative-log IC50 (pIC50) in assay [1] and in assay [2] were over 8.00 and over 7.00, respectively.

`CC1(NC(=O)O[C@@H]2CC[C@H](c3cc(Nc4cncc(C#N)n4)n[nH]3)C2)CC1` [US20250074895, Compound 11]: the pIC50 in assay [1] is over 8.00; in assay [2] it was over 7.00.

On to `CC1(NC(=O)O[C@@H]2CC[C@H](c3cc(Nc4cnc(C#N)cn4)n[nH]3)C2)CC1` [US20250074895, Compound 1], for which the pIC50 in assay [1] was over 8.00; in assay [2], 6.52.

Regarding `CN(C)c1cnc(Nc2cc([C@H]3CC[C@@H](OC(=O)NC4(C)CC4)C3)[nH]n2)cn1` [US20250074895, Compound 32], the negative-log IC50 (pIC50) in assay [1] was over 8.00; in assay [2], under 6.30.

For the compound `CC1(NC(=O)O[C@@H]2CC[C@H](c3cc(Nc4cnc(Cl)cn4)n[nH]3)C2)CC1` [US20250074895, Compound 41], the pIC50 was over 8.00 in assay [1] and under 6.30 in assay [2].

Regarding `CC1(NC(=O)O[C@@H]2CC[C@H](c3cc(Nc4cnc(S(C)(=O)=O)cn4)n[nH]3)C2)CC1` [US20250074895, Compound 35], the negative-log IC50 (pIC50) in assay [1] is over 8.00; in assay [2], under 6.30.

As for `CC1(NC(=O)O[C@@H]2CC[C@H](c3cc(Nc4ccnc(C(F)F)n4)n[nH]3)C2)CC1` [US20250074895, Compound 33], the pIC50 in assay [1] is over 8.00; in assay [2], over 7.00.

`CC1(NC(=O)O[C@@H]2CC[C@H](c3cc(Nc4cnc(CO)cn4)n[nH]3)C2)CC1` [US20250074895, Compound 55]: the negative logarithm of the IC50 (pIC50) in assay [1] was over 8.00; in assay [2] it was over 7.00.

For `COc1nncc(Nc2cc([C@H]3CC[C@@H](OC(=O)NC4(C)CC4)C3)[nH]n2)n1` [US20250074895, Compound 54], the negative-log IC50 (pIC50) in assay [1] is over 8.00; in assay [2], over 7.00.

`CNc1nncc(Nc2cc([C@H]3CC[C@@H](OC(=O)NC4(C)CC4)C3)[nH]n2)n1` [US20250074895, Compound 23]: the values for the pIC50 in assay [1] and in assay [2] were over 8.00 and over 7.00, respectively.

Consider `CC1(NC(=O)O[C@@H]2CC[C@H](c3cc(Nc4cnc(C(F)F)cn4)n[nH]3)C2)CC1` [US20250074895, Compound 36], for which the results for the pIC50 in assay [1] and in assay [2] were over 8.00 and over 7.00, respectively.

With `Cc1c(C#N)ccnc1Nc1cc([C@H]2CC[C@@H](OC(=O)NC3(C)CC3)C2)[nH]n1` [US20250074895, Compound 14], the pIC50 in assay [1] is over 8.00; in assay [2], under 6.30.

`CC1(NC(=O)O[C@@H]2CC[C@H](c3cc(Nc4cnc(C(F)(F)F)cn4)n[nH]3)C2)CC1` [US20250074895, Compound 30]: the negative logarithm of the IC50 (pIC50) is over 8.00 in assay [1] and 6.52 in assay [2].

In the case of `CNc1nc(Nc2cc([C@H]3CC[C@@H](OC(=O)NC4(C)CC4)C3)[nH]n2)cnc1C#N` [US20250074895, Compound 43], the pIC50 in assay [1] was over 8.00; in assay [2], 6.52.

`CN(C)c1nncc(Nc2cc([C@H]3CC[C@@H](OC(=O)NC4(C)CC4)C3)[nH]n2)n1` [US20250074895, Compound 44]: the values for the negative logarithm of the IC50 (pIC50) in assay [1] and in assay [2] were over 8.00 and over 7.00, respectively.

Turning to `CC1(NC(=O)O[C@@H]2CC[C@H](c3cc(Nc4cnccn4)n[nH]3)C2)CC1` [US20250074895, Compound 26], the pIC50 was over 8.00 in assay [1] and 6.52 in assay [2].

For `Cc1cc(C#N)cnc1Nc1cc([C@H]2CC[C@@H](OC(=O)NC3(C)CC3)C2)[nH]n1` [US20250074895, Compound 20], the negative-log IC50 (pIC50) is over 8.00 in assay [1] and under 6.30 in assay [2].

With `Cc1cnc(C#N)nc1Nc1cc([C@H]2CC[C@@H](OC(=O)NC3(C)CC3)C2)[nH]n1` [US20250074895, Compound 19], the figures for the pIC50 in assay [1] and in assay [2] were over 8.00 and 6.52, respectively.

Turning to `C[C@@H](O)c1cnc(Nc2cc([C@H]3CC[C@@H](OC(=O)NC4(C)CC4)C3)[nH]n2)cn1` [US20250074895, Compound 22], the negative-log IC50 (pIC50) was over 8.00 in assay [1] and 6.52 in assay [2].

`CC1(NC(=O)O[C@H]2CC[C@@H](c3cc(Nc4cnccn4)n[nH]3)C2)CC1` [US20250074895, Compound 57]: the pIC50 in assay [1] was over 8.00; in assay [2] it was over 7.00.

With `COCc1cnc(Nc2cc([C@H]3CC[C@@H](OC(=O)NC4(C)CC4)C3)[nH]n2)cn1` [US20250074895, Compound 37], the pIC50 in assay [1] was over 8.00; in assay [2] it was 6.52.

For `CC1(NC(=O)O[C@@H]2CC[C@H](c3cc(Nc4cc(C#N)ncn4)n[nH]3)C2)CC1` [US20250074895, Compound 16], the pIC50 was over 8.00 in assay [1] and over 7.00 in assay [2].

With `CC1(NC(=O)O[C@@H]2CC[C@H](c3cc(Nc4cc(C#N)cnn4)n[nH]3)C2)CC1` [US20250074895, Compound 5], the pIC50 in assay [1] was over 8.00; in assay [2], 6.52.

As for `CC1(NC(=O)O[C@@H]2CC[C@H](c3cc(Nc4cccnn4)n[nH]3)C2)CC1` [US20250074895, Compound 38], the results for the pIC50 in assay [1] and in assay [2] were 7.82 and under 6.30, respectively.

`C[C@H](O)c1cnc(Nc2cc([C@H]3CC[C@@H](OC(=O)NC4(C)CC4)C3)[nH]n2)cn1` [US20250074895, Compound 21]: the negative-log IC50 (pIC50) in assay [1] is over 8.00; in assay [2], 6.52.

Turning to `CNc1nccc(Nc2cc([C@H]3CC[C@@H](OC(=O)NC4(C)CC4)C3)[nH]n2)n1` [US20250074895, Compound 48], the pIC50 was over 8.00 in assay [1] and 6.52 in assay [2].

On to `C[C@H](O)c1cnc(Nc2cc([C@H]3CC[C@@H](OC(=O)N4CCC4(C)C)C3)[nH]n2)cn1` [US20250074895, Compound 52], for which the pIC50 in assay [1] was over 8.00; in assay [2] it was over 7.00.

`CC1(NC(=O)O[C@@H]2CC[C@H](c3cc(Nc4ccccn4)n[nH]3)C2)CC1` [US20250074895, Compound 13]: the values for the pIC50 in assay [1] and in assay [2] were 7.82 and under 6.30, respectively.

As for `CC1(NC(=O)O[C@@H]2CC[C@H](c3cc(Nc4cncc(C5CC5)n4)n[nH]3)C2)CC1` [US20250074895, Compound 29], the negative-log IC50 (pIC50) in assay [1] was over 8.00; in assay [2] it was over 7.00.
